Measurements published in article doi:10.1101/2020.06.11.145995v1 (biorxiv, 2020).
Read-outs that look alike come from different tables or passages of the source. Values belong to the compound of their own block, whether it stands above or below them.

Columns and labels:
Assay in all cases: biochemical
AKT1 = AKT1 (Homo sapiens, UniProt P31749)
AMPK-alpha2 = AMPK-alpha2 (Homo sapiens, UniProt P54646)
ASK2 = ASK2 (Homo sapiens, UniProt O95382)
CAMK1D = CAMK1D (Homo sapiens, UniProt Q8IU85)
CAMKK2 = CAMKK2 (Homo sapiens, UniProt Q96RR4)
CASK = CASK (Homo sapiens, UniProt O14936)
CDKL1 = CDKL1 (Homo sapiens, UniProt Q00532)
CIT = CIT (Homo sapiens, UniProt O14578)
CSNK1E = CSNK1E (Homo sapiens, UniProt P49674)
CSNK1G3 = CSNK1G3 (Homo sapiens, UniProt Q9Y6M4)
CSNK2A1 = CSNK2A1 (Homo sapiens, UniProt P68400)
DMPK = DMPK (Homo sapiens, UniProt Q09013)
DMPK2 = DMPK2 (Homo sapiens, UniProt Q6DT37)
EGFR = EGFR (Homo sapiens, UniProt P00533)
FAK = FAK (Homo sapiens, UniProt Q05397)
FGFR4 = FGFR4 (Homo sapiens, UniProt P22455)
FLT3(ITD) = FLT3(ITD) (Homo sapiens, UniProt P36888, ITD)
HIPK2 = HIPK2 (Homo sapiens, UniProt Q9H2X6)
HIPK4 = HIPK4 (Homo sapiens, UniProt Q8NE63)
INSRR = INSRR (Homo sapiens, UniProt P14616)
ITK = ITK (Homo sapiens, UniProt Q08881)
JNK2 = JNK2 (Homo sapiens, UniProt P45984)
LYN = LYN (Homo sapiens, UniProt P07948)
MAPKAPK5 = MAPKAPK5 (Homo sapiens, UniProt Q8IW41)
MARK4 = MARK4 (Homo sapiens, UniProt Q96L34)
MET(Y1235D) = MET(Y1235D) (Homo sapiens, UniProt P08581, Y1235D)
MINK = MINK (Homo sapiens, UniProt Q8N4C8)
MKNK2 = MKNK2 (Homo sapiens, UniProt Q9HBH9)
MRCKB = MRCKB (Homo sapiens, UniProt Q9Y5S2)
MUSK = MUSK (Homo sapiens, UniProt O15146)
[1] = read-out: CPT-1-70-1 (1uM) % control
[2] = read-out: HYJ-2-002-1 (1uM) % control

HIPK2, sequence (Q9H2X6 whole entry): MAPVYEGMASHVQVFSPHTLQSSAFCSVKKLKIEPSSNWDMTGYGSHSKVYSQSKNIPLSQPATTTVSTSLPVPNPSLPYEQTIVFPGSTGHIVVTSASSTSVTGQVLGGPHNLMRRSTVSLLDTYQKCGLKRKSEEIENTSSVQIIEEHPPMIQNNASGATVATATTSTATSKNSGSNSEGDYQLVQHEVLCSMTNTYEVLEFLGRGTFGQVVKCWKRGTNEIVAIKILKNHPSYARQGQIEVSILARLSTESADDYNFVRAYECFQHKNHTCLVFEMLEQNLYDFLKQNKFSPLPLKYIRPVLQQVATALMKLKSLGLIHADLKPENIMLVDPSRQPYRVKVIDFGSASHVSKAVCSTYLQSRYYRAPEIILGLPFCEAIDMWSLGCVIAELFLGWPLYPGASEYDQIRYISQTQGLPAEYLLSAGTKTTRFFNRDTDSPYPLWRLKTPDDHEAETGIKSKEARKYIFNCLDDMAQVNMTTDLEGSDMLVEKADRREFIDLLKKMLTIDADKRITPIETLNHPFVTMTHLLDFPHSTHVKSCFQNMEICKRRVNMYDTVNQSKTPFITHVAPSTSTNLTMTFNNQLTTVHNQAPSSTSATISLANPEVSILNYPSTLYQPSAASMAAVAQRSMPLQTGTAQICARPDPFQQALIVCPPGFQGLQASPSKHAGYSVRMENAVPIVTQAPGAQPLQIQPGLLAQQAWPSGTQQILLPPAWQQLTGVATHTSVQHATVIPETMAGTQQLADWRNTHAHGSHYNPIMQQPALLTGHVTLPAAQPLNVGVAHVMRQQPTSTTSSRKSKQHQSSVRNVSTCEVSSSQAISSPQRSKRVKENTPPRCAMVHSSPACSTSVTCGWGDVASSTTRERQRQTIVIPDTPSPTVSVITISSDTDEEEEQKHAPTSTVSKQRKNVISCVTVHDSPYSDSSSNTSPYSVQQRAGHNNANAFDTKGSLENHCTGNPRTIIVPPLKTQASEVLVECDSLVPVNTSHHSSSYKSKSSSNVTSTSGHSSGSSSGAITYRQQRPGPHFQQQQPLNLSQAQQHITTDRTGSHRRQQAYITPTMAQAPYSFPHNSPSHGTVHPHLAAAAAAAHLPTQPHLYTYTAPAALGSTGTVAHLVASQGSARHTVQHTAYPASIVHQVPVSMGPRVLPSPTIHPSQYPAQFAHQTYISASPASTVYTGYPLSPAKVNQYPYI
HIPK4, sequence (Q8NE63 whole entry): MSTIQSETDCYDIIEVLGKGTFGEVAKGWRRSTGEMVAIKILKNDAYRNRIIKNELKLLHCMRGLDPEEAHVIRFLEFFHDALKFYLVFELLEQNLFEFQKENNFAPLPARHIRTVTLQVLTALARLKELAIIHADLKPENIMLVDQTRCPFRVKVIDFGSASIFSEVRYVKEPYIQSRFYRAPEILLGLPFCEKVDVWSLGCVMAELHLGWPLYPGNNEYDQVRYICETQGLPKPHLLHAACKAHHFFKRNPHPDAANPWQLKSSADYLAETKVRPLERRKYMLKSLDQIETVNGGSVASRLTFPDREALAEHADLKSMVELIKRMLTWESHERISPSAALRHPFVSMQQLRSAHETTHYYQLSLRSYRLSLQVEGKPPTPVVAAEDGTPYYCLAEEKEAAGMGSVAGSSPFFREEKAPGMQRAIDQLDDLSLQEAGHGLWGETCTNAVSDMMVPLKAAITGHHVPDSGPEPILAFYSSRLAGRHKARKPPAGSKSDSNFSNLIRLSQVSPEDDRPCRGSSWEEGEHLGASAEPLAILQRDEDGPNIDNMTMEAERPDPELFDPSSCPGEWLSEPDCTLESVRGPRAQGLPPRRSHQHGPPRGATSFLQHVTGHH
CSNK2A1, sequence (P68400 whole entry): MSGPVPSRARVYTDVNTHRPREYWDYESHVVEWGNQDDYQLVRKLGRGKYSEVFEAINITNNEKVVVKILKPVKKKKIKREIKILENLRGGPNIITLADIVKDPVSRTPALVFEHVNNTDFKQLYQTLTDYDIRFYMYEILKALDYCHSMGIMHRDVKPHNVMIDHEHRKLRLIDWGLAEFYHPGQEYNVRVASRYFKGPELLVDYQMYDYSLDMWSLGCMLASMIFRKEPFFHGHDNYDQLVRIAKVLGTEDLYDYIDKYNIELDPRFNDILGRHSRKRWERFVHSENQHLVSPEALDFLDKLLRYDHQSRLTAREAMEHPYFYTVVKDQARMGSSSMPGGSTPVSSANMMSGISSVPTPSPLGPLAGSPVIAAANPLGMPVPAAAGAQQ
MARK4, sequence (Q96L34 whole entry): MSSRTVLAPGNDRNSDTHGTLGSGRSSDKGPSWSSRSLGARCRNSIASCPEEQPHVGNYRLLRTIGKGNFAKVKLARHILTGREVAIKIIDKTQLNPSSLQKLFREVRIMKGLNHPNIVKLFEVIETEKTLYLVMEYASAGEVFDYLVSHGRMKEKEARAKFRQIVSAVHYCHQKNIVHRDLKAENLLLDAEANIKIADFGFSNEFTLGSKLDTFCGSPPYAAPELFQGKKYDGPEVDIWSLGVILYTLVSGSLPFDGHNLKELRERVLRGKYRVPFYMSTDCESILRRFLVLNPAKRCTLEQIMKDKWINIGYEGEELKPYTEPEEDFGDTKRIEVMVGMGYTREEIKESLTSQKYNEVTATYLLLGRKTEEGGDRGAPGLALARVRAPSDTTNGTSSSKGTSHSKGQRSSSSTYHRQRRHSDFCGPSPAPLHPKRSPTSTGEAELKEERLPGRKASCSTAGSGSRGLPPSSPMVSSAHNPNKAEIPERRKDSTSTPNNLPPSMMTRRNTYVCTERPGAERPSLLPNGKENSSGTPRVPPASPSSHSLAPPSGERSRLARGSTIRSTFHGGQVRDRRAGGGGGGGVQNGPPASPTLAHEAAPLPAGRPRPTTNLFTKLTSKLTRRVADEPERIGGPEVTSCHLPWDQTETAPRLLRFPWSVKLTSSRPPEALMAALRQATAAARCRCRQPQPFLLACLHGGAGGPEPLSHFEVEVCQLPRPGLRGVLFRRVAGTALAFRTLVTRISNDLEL
MRCKB, sequence (Q9Y5S2 whole entry): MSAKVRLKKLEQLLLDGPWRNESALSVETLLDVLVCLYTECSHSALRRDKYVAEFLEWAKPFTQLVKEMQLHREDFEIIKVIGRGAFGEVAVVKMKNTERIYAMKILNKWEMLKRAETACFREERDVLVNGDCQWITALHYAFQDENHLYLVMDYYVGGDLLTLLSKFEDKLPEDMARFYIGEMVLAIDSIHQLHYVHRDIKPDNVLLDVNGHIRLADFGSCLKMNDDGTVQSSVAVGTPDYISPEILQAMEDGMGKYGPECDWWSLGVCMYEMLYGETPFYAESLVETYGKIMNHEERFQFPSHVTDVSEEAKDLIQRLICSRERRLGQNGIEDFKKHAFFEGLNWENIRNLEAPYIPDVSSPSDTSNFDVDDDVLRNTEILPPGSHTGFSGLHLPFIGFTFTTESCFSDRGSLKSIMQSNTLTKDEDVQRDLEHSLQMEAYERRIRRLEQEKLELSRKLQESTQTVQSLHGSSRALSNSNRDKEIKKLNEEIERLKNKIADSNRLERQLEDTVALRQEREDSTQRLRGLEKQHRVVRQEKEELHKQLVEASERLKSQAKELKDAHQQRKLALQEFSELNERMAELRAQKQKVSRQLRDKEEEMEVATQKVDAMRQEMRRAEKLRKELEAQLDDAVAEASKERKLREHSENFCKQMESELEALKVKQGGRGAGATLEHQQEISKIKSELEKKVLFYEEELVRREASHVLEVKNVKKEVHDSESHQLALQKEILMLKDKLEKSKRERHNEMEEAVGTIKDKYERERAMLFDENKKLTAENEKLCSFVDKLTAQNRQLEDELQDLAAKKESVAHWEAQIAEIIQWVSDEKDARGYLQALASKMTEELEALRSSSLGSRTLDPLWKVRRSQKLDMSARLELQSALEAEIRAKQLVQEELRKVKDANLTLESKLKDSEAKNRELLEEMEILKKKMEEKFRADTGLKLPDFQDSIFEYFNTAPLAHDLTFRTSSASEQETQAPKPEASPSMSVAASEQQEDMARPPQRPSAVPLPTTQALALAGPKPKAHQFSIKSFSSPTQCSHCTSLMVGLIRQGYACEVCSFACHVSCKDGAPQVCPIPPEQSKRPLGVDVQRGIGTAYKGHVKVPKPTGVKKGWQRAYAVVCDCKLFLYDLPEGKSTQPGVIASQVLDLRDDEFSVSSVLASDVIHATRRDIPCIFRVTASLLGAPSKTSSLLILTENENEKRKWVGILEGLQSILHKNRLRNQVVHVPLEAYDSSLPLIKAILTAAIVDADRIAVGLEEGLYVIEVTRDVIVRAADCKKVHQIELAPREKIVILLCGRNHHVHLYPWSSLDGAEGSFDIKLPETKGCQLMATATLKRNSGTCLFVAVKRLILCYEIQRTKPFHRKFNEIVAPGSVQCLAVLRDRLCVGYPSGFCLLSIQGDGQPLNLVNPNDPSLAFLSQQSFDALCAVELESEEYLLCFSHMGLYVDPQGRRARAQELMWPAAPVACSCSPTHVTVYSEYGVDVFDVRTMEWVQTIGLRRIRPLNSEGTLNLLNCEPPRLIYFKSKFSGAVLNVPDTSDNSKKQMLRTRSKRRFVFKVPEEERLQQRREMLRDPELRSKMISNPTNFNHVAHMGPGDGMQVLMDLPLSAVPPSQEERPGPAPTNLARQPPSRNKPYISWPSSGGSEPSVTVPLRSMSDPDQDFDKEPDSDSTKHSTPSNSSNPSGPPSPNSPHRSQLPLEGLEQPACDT
FLT3(ITD), sequence (P36888 564-993, change not shown): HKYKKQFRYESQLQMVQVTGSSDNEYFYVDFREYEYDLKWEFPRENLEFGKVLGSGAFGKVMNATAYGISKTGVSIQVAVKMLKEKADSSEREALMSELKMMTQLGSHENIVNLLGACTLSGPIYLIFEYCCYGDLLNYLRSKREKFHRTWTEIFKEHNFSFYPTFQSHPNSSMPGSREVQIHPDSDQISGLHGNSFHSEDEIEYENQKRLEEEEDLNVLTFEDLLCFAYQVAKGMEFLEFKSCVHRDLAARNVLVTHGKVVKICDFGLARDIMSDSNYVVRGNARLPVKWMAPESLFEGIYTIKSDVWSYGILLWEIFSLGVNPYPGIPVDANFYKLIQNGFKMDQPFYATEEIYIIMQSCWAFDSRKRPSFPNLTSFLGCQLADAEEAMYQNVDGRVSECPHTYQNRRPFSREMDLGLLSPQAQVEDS

Compound: CN1CCN(c2ccc(Nc3nc(Oc4ccc(NC(=O)CCl)cc4)c4cc[nH]c4n3)cc2)CC1 [CPT1-70-1]
remaining activity at 1 µM (AKT1; [1]): 100%
remaining activity at 1 µM (AMPK-alpha2; [1]): 41%
remaining activity at 1 µM (ASK2; [1]): 100%
remaining activity at 1 µM (CAMK1D; [1]): 56%
remaining activity at 1 µM (CAMKK2; [1]): 68%
remaining activity at 1 µM (CASK; [1]): 100%
remaining activity at 1 µM (CDKL1; [1]): 66%
remaining activity at 1 µM (CIT; [1]): 26%
remaining activity at 1 µM (CSNK1E; [1]): 18%
remaining activity at 1 µM (CSNK1G3; [1]): 2.6%
remaining activity at 1 µM (CSNK2A1; [1]): 35%
remaining activity at 1 µM (DMPK; [1]): 41%
remaining activity at 1 µM (DMPK2; [1]): 67%
remaining activity at 1 µM (EGFR; [1]): 63%
remaining activity at 1 µM (FAK; [1]): 85%
remaining activity at 1 µM (FGFR4; [1]): 60%
remaining activity at 1 µM (FLT3(ITD); [1]): 1.6%
remaining activity at 1 µM (HIPK2; [1]): 90%
remaining activity at 1 µM (HIPK4; [1]): 74%
remaining activity at 1 µM (INSRR; [1]): 33%
remaining activity at 1 µM (ITK; [1]): 0.85%
remaining activity at 1 µM (JNK2; [1]): 13%
remaining activity at 1 µM (LYN; [1]): 49%
remaining activity at 1 µM (MAPKAPK5; [1]): 98%
remaining activity at 1 µM (MARK4; [1]): 1.8%
remaining activity at 1 µM (MET(Y1235D); [1]): 23%
remaining activity at 1 µM (MINK; [1]): 41%
remaining activity at 1 µM (MKNK2; [1]): 100%
remaining activity at 1 µM (MRCKB; [1]): 100%
remaining activity at 1 µM (MUSK; [1]): 8.8%

remaining activity at 1 µM (AKT1; [2]): 100%
remaining activity at 1 µM (AMPK-alpha2; [2]): 100%
remaining activity at 1 µM (ASK2; [2]): 100%
remaining activity at 1 µM (CAMK1D; [2]): 94%
remaining activity at 1 µM (CAMKK2; [2]): 100%
remaining activity at 1 µM (CASK; [2]): 100%
remaining activity at 1 µM (CDKL1; [2]): 94%
remaining activity at 1 µM (CIT; [2]): 6.7%
remaining activity at 1 µM (CSNK1E; [2]): 75%
remaining activity at 1 µM (CSNK1G3; [2]): 65%
remaining activity at 1 µM (CSNK2A1; [2]): 94%
remaining activity at 1 µM (DMPK; [2]): 100%
remaining activity at 1 µM (DMPK2; [2]): 92%
remaining activity at 1 µM (EGFR; [2]): 5%
remaining activity at 1 µM (FAK; [2]): 91%
remaining activity at 1 µM (FGFR4; [2]): 4.4%
remaining activity at 1 µM (FLT3(ITD); [2]): 2.3%
remaining activity at 1 µM (HIPK2; [2]): 84%
remaining activity at 1 µM (HIPK4; [2]): 2.6%
remaining activity at 1 µM (INSRR; [2]): 100%
remaining activity at 1 µM (ITK; [2]): 75%
remaining activity at 1 µM (JNK2; [2]): 1.8%
remaining activity at 1 µM (LYN; [2]): 0.15%
remaining activity at 1 µM (MAPKAPK5; [2]): 100%
remaining activity at 1 µM (MARK4; [2]): 94%
remaining activity at 1 µM (MET(Y1235D); [2]): 83%
remaining activity at 1 µM (MINK; [2]): 33%
remaining activity at 1 µM (MKNK2; [2]): 7%
remaining activity at 1 µM (MRCKB; [2]): 100%
remaining activity at 1 µM (MUSK; [2]): 1.4%
Compound: CCN1CCN(Cc2ccc(NC(=O)c3ccc(C)c(CCc4cnc5[nH]ccc5c4OC)c3)cc2C(F)(F)F)CC1 [HYJ-2-002-1]
